Laboratory results from ChEMBL document CHEMBL6127017, “Regulation of exercise ability and glycolipid metabolism by synthetic SR9009 analogues as new REV-ERB-α agonists” (Bioorg Med Chem, 2024).
Blank lines part the entries; values can stand above or below the molecule they belong to.

Key:
[1] = Cytotoxicity against MDCK cells; format: toxicity, cell-based, Canis lupus familiaris; conditions: dog, read-out: TC50 (the source's name)
HEK293 = test: Agonist activity at Flag-tagged REV-ERBalpha (unknown origin) expressed in HEK293 cells co-expressing BMAL1 (unknown origin) assessed as relative strength index by measuring ratio of inhibitory rate of BMAL1 incubated for 24 hrs by Dual Glo-Luciferase assay relative to SR9009; format: cell-based; conditions: Homo sapiens
Mus musculus [2] = test: Effect on exercise tolerance in normal diet-fed C57BL/6 mouse assessed as total running distance at 200 mg/kg, IG for 3 days (reference value: 2183.20 meter); format: functional; conditions: time 3 day
[3] = Metabolic stability in human liver microsomes assessed as compound remaining at 1 uM measured after 45 mins by LC-MS/MS analysis; format: ADME, Microsome; conditions: read-out: Stability
[4] = Metabolic stability in human liver microsomes assessed as hepatic extraction ratio at 1 uM incubated upto 60 mins by LC-MS/MS analysis; format: ADME, Microsome; conditions: read-out: ERH
[5] = Metabolic stability in human liver microsomes assessed as compound remaining at 1 uM measured after 15 mins by LC-MS/MS analysis; format: ADME, Microsome; conditions: read-out: Stability
Mus musculus [6] = test: Effect on exercise tolerance in high-fat diet-induced obese C57BL/6 mouse assessed as total running distance at 200 mg/kg, IG for 7 days; format: functional; conditions: time 7 day
[7] = Metabolic stability in human liver microsomes assessed as intrinsic clearance at 1 uM incubated upto 60 mins by LC-MS/MS analysis; format: ADME, Microsome; conditions: read-out: CLH
Mus musculus [8] = test: Effect on blood lipid level in high-fat diet-induced obese C57BL/6 mouse assessed as decrease in blood glucose level at 200 mg/kg, IG for 7 days (reference value: 10.77 mmol/L); format: functional; conditions: time 7 day
Mus musculus [9] = test: Effect on exercise tolerance in high-fat diet-induced obese C57BL/6 mouse assessed as total running time at 200 mg/kg, IG for 7 days (reference value: 2954.50 sec); format: functional; conditions: time 7 day
[10] = Metabolic stability in human liver microsomes assessed as compound remaining at 1 uM measured after 60 mins in presence of NADPH/UDPGA by LC-MS/MS analysis; format: ADME, Microsome; conditions: read-out: Stability
[11] = Metabolic stability in human liver microsomes assessed as compound remaining at 1 uM measured immediately by LC-MS/MS analysis; format: ADME, Microsome; conditions: read-out: Stability
[12] = Metabolic stability in human liver microsomes assessed as compound remaining at 1 uM measured after 30 mins in presence of NADPH/UDPGA by LC-MS/MS analysis; format: ADME, Microsome; conditions: read-out: Stability
[13] = Metabolic stability in human liver microsomes assessed as compound remaining at 1 uM measured after 15 mins in presence of NADPH/UDPGA by LC-MS/MS analysis; format: ADME, Microsome; conditions: read-out: Stability
[14] = Agonist activity at Flag-tagged REV-ERBalpha (unknown origin) expressed in HEK293 cells co-expressing BMAL1 (unknown origin) inhibition of BMAL1 incubated for 24 hrs by Dual Glo-Luciferase assay; format: cell-based; conditions: Homo sapiens, HEK293, 24 h
[15] = Metabolic stability in human liver microsomes assessed as compound remaining at 1 uM measured after 45 mins in presence of NADPH/UDPGA by LC-MS/MS analysis; format: ADME, Microsome; conditions: read-out: Stability
Mus musculus [16] = test: Effect on blood lipid level in high-fat diet-induced obese C57BL/6 mouse assessed as triglyceride level at 200 mg/kg, IG for 7 days (reference value: 2.07 mmol/L); format: functional; conditions: time 7 day
[17] = Metabolic stability in human liver microsomes assessed as half life at 1 uM incubated upto 60 mins by LC-MS/MS analysis; format: ADME, Microsome
[18] = Metabolic stability in human liver microsomes assessed as compound remaining at 1 uM measured after 30 mins by LC-MS/MS analysis; format: ADME, Microsome; conditions: read-out: Stability
[19] = Metabolic stability in human liver microsomes assessed as compound remaining at 1 uM measured immediately in presence of NADPH/UDPGA by LC-MS/MS analysis; format: ADME, Microsome; conditions: read-out: Stability
Mus musculus [20] = test: Effect on blood lipid level in high-fat diet-induced obese C57BL/6 mouse assessed as total cholesterol level at 200 mg/kg, IG for 7 days (reference value: 4.69 mmol/L); format: functional; conditions: time 7 day
Mus musculus [21] = test: Effect on exercise tolerance in normal diet-fed C57BL/6 mouse assessed as total running time at 200 mg/kg, IG for 3 days (reference value: 7002.00 sec); format: functional; conditions: time 3 day
[22] = Metabolic stability in human liver microsomes assessed as compound remaining at 1 uM measured after 60 mins by LC-MS/MS analysis; format: ADME, Microsome; conditions: read-out: Stability

Structure (SMILES): COc1cccc(CN(Cc2ccc([N+](=O)[O-])s2)CC2CCN(C(=O)C3CC3)C2)c1 (stereo not drawn)
CC50 [1]: 15.4 µM
Ratio (HEK293; filed as agonist): 64.5%

Structure (SMILES): O=C(NS(=O)(=O)N1CCC(CN(Cc2ccc(Cl)cc2)Cc2ccc([N+](=O)[O-])s2)C1)OCC1CC1 (stereo not drawn)
Ratio (HEK293; filed as agonist): 63%

remaining at 0.75 h, 1 µM [3]: 105%
hepatic extraction ratio at 1 h, 1 µM [4]: 0.97
remaining at 0.25 h, 1 µM [5]: 106%
microsomal CLint at 1 µM [7]: 601 µL/min/mg
remaining at 1 h, 1 µM [10]: 0.07%
remaining at 0 min, 1 µM [11]: 100%
remaining at 0.5 h, 1 µM [12]: 0.23%
remaining at 0.25 h, 1 µM [13]: 1.1%
EC50 [14]: 4.93 µM
remaining at 0.75 h, 1 µM [15]: 0.16%
half-life at 1 µM [17]: 2.3 min
remaining at 0.5 h, 1 µM [18]: 103%
remaining at 0 min, 1 µM [19]: 100%
remaining at 1 h, 1 µM [22]: 108%
Structure (SMILES): O=C(C1CC1)N1CCC(CN(Cc2ccc([N+](=O)[O-])s2)Cc2ccc(F)cc2F)C1 (stereo not drawn)
Activity (Mus musculus [2]): 2843.74 m
CC50 [1]: 38.5 µM
Activity (Mus musculus [6]): 1042.52 m
Ratio (HEK293; filed as agonist): 98.2%
Activity (Mus musculus [8]): 6.79 mmol/L
Time (Mus musculus [9]): 5805 s
Activity (Mus musculus [16]): 1.04 mmol/L
Activity (Mus musculus [20]): 3.83 mmol/L
Time (Mus musculus [21]): 9087.88 s

Structure (SMILES): CC(F)C(=O)N1CCC(CN(Cc2ccc(Cl)cc2)Cc2ccc([N+](=O)[O-])s2)C1 (stereo not drawn)
Ratio (HEK293; filed as agonist): 85.4%

Structure (SMILES): O=C(C1CC1)N1CCC(CN(Cc2cccc(Br)c2)Cc2ccc([N+](=O)[O-])s2)C1 (stereo not drawn)
CC50 [1]: 15.4 µM
Ratio (HEK293; filed as agonist): 89.8%

EC50 [14]: 7.15 µM
Structure (SMILES): O=C(c1ccco1)N1CCC(CN(Cc2ccc(Cl)cc2)Cc2ccc([N+](=O)[O-])s2)C1 (stereo not drawn)
Activity (Mus musculus [6]): 836.67 m
Ratio (HEK293; filed as agonist): 126%
Time (Mus musculus [9]): 4165.38 s

remaining at 0.75 h, 1 µM [3]: 85.6%
hepatic extraction ratio at 1 h, 1 µM [4]: 0.97
remaining at 0.25 h, 1 µM [5]: 85.6%
microsomal CLint at 1 µM [7]: 622 µL/min/mg
remaining at 1 h, 1 µM [10]: 0.06%
remaining at 0 min, 1 µM [11]: 100%
remaining at 0.5 h, 1 µM [12]: 0.04%
remaining at 0.25 h, 1 µM [13]: 0.94%
EC50 [14]: 8.57 µM
remaining at 0.75 h, 1 µM [15]: 0.08%
half-life at 1 µM [17]: 2.23 min
remaining at 0.5 h, 1 µM [18]: 98.5%
remaining at 0 min, 1 µM [19]: 100%
remaining at 1 h, 1 µM [22]: 103%
Structure (SMILES): CCOC(=O)N1CCC(CN(Cc2ccc(Cl)cc2)Cc2ccc([N+](=O)[O-])s2)C1 (stereo not drawn) [SR9009]
Activity (Mus musculus [2]): 3121.42 m
CC50 [1]: 38.5 µM
Activity (Mus musculus [6]): 1177.69 m
Activity (Mus musculus [8]): 9.46 mmol/L
Time (Mus musculus [9]): 5428.38 s
Activity (Mus musculus [16]): 1.07 mmol/L
Activity (Mus musculus [20]): 4.03 mmol/L
Time (Mus musculus [21]): 9908.5 s

EC50 [14]: 9.21 µM
Structure (SMILES): O=C(C1CCC1)N1CCC(CN(Cc2ccc(Cl)cc2)Cc2ccc([N+](=O)[O-])s2)C1 (stereo not drawn)
Activity (Mus musculus [6]): 572.8 m
Ratio (HEK293; filed as agonist): 116%
Time (Mus musculus [9]): 3159 s

EC50 [14]: 8.65 µM
Structure (SMILES): C=CC(=O)N1CCC(CN(Cc2ccc(Cl)cc2)Cc2ccc([N+](=O)[O-])s2)C1 (stereo not drawn)
Activity (Mus musculus [6]): 910.9 m
Ratio (HEK293; filed as agonist): 125%
Time (Mus musculus [9]): 4516.75 s

Structure (SMILES): C=CC(=O)N1CCC(CN(Cc2ccc(F)cc2)Cc2ccc([N+](=O)[O-])s2)C1 (stereo not drawn)
Ratio (HEK293; filed as agonist): 61.2%

EC50 [14]: 8.29 µM
Structure (SMILES): O=C(c1ccc(Br)o1)N1CCC(CN(Cc2ccc(Cl)cc2)Cc2ccc([N+](=O)[O-])s2)C1 (stereo not drawn)
Activity (Mus musculus [6]): 797.96 m
Ratio (HEK293; filed as agonist): 120%
Time (Mus musculus [9]): 4130 s

Structure (SMILES): O=C(C1CC1)N1CCC(CN(Cc2cccc(Cl)c2)Cc2ccc([N+](=O)[O-])s2)C1 (stereo not drawn)
CC50 [1]: 22.2 µM
Ratio (HEK293; filed as agonist): 51%

Structure (SMILES): O=C(C1CC1)N1CCC(CN(Cc2ccc3c(c2)OCO3)Cc2ccc([N+](=O)[O-])s2)C1 (stereo not drawn)
CC50 [1]: 15.4 µM
Ratio (HEK293; filed as agonist): 70.7%

Structure (SMILES): O=C(C1CC1)N1CCC(CN(Cc2cc(Cl)cc(Cl)c2)Cc2ccc([N+](=O)[O-])s2)C1 (stereo not drawn)
CC50 [1]: 12.8 µM
Ratio (HEK293; filed as agonist): 64.7%

Structure (SMILES): O=C(CC1CC1)N1CCC(CN(Cc2ccc(Cl)cc2)Cc2ccc([N+](=O)[O-])s2)C1 (stereo not drawn)
Ratio (HEK293; filed as agonist): 73.2%

Structure (SMILES): COc1ccc(CN(Cc2ccc([N+](=O)[O-])s2)CC2CCN(C(=O)C3CC3)C2)cc1OC (stereo not drawn)
CC50 [1]: 32 µM
Ratio (HEK293; filed as agonist): 43.4%

remaining at 0.75 h, 1 µM [3]: 93.3%
hepatic extraction ratio at 1 h, 1 µM [4]: 0.96
remaining at 0.25 h, 1 µM [5]: 93.2%
microsomal CLint at 1 µM [7]: 411 µL/min/mg
remaining at 1 h, 1 µM [10]: 0.15%
remaining at 0 min, 1 µM [11]: 100%
remaining at 0.5 h, 1 µM [12]: 0.91%
remaining at 0.25 h, 1 µM [13]: 4.6%
EC50 [14]: 5.99 µM
remaining at 0.75 h, 1 µM [15]: 0.3%
half-life at 1 µM [17]: 3.37 min
remaining at 0.5 h, 1 µM [18]: 108%
remaining at 0 min, 1 µM [19]: 100%
remaining at 1 h, 1 µM [22]: 90.1%
Structure (SMILES): O=C(C1CC1)N1CCC(CN(Cc2ccc(Cl)c(Cl)c2)Cc2ccc([N+](=O)[O-])s2)C1 (stereo not drawn)
Activity (Mus musculus [2]): 3115.39 m
CC50 [1]: 10.7 µM
Activity (Mus musculus [6]): 1061.4 m
Ratio (HEK293; filed as agonist): 84.8%
Activity (Mus musculus [8]): 6.82 mmol/L
Time (Mus musculus [9]): 5011.38 s
Activity (Mus musculus [16]): 1.12 mmol/L
Activity (Mus musculus [20]): 4.5 mmol/L
Time (Mus musculus [21]): 10034.25 s

EC50 [14]: 8.88 µM
Structure (SMILES): O=C(Cc1cccs1)N1CCC(CN(Cc2ccc(Cl)cc2)Cc2ccc([N+](=O)[O-])s2)C1 (stereo not drawn)
Activity (Mus musculus [6]): 686.85 m
Ratio (HEK293; filed as agonist): 121%
Time (Mus musculus [9]): 3726.88 s

Structure (SMILES): COc1ccccc1CN(Cc1ccc([N+](=O)[O-])s1)CC1CCN(C(=O)C2CC2)C1 (stereo not drawn)
CC50 [1]: 38.5 µM
Ratio (HEK293): 5.77%

Structure (SMILES): O=C(C1CC1)N1CCC(CN(Cc2ccc(Cl)cc2)Cc2ccc([N+](=O)[O-])s2)C1 (stereo not drawn)
Ratio (HEK293; filed as agonist): 55%

Structure (SMILES): CC1CCC(N(Cc2ccc([N+](=O)[O-])s2)CC2CCN(C(=O)OC(C)(C)C)C2)CC1 (stereo not drawn)
Ratio (HEK293): 26.8%

EC50 [14]: 8.31 µM
Structure (SMILES): O=C(C1CC1)N1CCC(CN(Cc2ccc([N+](=O)[O-])s2)Cc2ccc(F)cc2Cl)C1 (stereo not drawn)
CC50 [1]: 38.5 µM
Ratio (HEK293; filed as agonist): 89.4%

Structure (SMILES): O=C(C1CC1)N1CCC(CN(Cc2ccc([N+](=O)[O-])s2)Cc2c(F)cccc2Cl)C1 (stereo not drawn)
Ratio (HEK293): 30.2%

Structure (SMILES): O=C(NS(=O)(=O)N1CCC(CN(Cc2ccc(Cl)cc2)Cc2ccc([N+](=O)[O-])s2)C1)OCC1CCCC1 (stereo not drawn)
Ratio (HEK293): 34.3%
